Source: the METLIN SMRT retention time set (Domingo-Almenara et al. 2019)

Test: gradient 5% acetonitrile 3 min, to 50% in 2 min, to 85% in 15 min, held 3 min, 100 µL/min
Conditions: column: Zorbax Extend-C18 2.1 x 50 mm; eluents: water / acetonitrile, 0.1% formic acid
Method in brief: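 Retention times come from adduct peaks that were picked computationally and then checked by hand. The standards, pure and pooled in mixtures of ~100 molecules, were run on a Zorbax Extend-C18 column (2.1 × 50 mm, 1.8 μm) at 100 μL/min with water and acetonitrile, each with 0.1% formic acid. Detection was by quadrupole time-of-flight mass spectrometry in positive and negative ionization mode, with a dead volume of 40 μL and a dwell volume of 900 μL.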

| Structure (SMILES) | RP-LC retention time [s] |
| --- | --- |
| CC1CCN(c2nn(CC(=O)NC3CCc4ccccc43)c(=O)c3ccccc23)CC1 (stereo unspecified) | 1140 |
| O=C(CSc1nnc(-c2ccccc2F)o1)NC1CCCCC1 | 782 |
| O=C(NC1CCc2ccccc21)C1CCN(c2ncnc3c2oc2ccccc23)CC1 (stereo unspecified) | 778 |
| O=C(c1cc(-c2ccncc2)n[nH]1)N1CCC(C(=O)N2CCN(c3ncccn3)CC2)CC1 | 575 |
| COC[C@@H]1CN(c2cnccn2)C[C@H]1C(=O)NC(C)C | 572 |
| COCCn1cc(C(=O)N2CCc3ccccc32)c2nn(-c3ccccc3)c(=O)c-2c1 | 789 |
| CCC(C)N1CC(=O)N(c2ccc(OC)c(Cl)c2)[C@@H]2CS(=O)(=O)C[C@@H]21 (stereo partly specified) | 786 |
| O=C(NC1CC1)C1Cc2ccccc2CN1S(=O)(=O)c1ccc(Cl)cc1 (stereo unspecified) | 909 |
| CCn1c(=O)sc2cc(S(=O)(=O)N3CCC(C(=O)NCc4ccccc4Cl)CC3)ccc21 | 905 |
| Cc1ncc2c(n1)CCCN(CC(=O)N1CCCC1)C2=O | 579 |
| CCCCn1cnc2c(-c3ccccc3)cn(CC(=O)NCCC(C)C)c2c1=O | 1050 |
| N#Cc1cccc(C(=O)N2CCN3CCS(=O)(=O)N(C4CC4)C(=O)C3C2)c1 (stereo unspecified) | 714 |
| COc1cccc(-c2noc(C3CCCN3C(=O)Nc3ccc4c(c3)OCCO4)n2)c1 (stereo unspecified) | 886 |
| O=C1NC(C(=O)NC2CC2)Cn2cccc21 (stereo unspecified) | 569 |
| CCNC(=O)C1CCN(S(=O)(=O)c2cc(-c3noc(C)n3)cs2)CC1 | 713 |
| Cc1nn(C2CCS(=O)(=O)C2)c(C)c1C(=O)O (stereo unspecified) | 571 |
| O=C(CCCN1CCC2(CC1)C(=O)NCN2c1ccccc1)c1ccc(F)cc1 | 725 |
| COc1ccc(CC(=O)Nc2cc(N3CCOCC3)ncn2)cc1OC | 582 |
| CC1CS(=O)(=O)N(c2ccc(C(=O)N3CCN(c4ccccn4)CC3)c(Cl)c2)C1=O (stereo unspecified) | 576 |
| O=C(Cn1cccn1)N1CCN(c2cccc(Cl)c2Cl)CC1 | 782 |
| O=C(Cn1c(Cc2ccc(Cl)cc2)nc2ccccc21)N1CCCCCC1 | 739 |
| O=c1ccc(N2CCC(NS(=O)(=O)c3cccnc3)CC2)nn1CC1CC1 | 700 |
| O=C(NCc1cccs1)c1coc(NC(=O)C2CC2)n1 | 614 |
| O=c1[nH]cc(S(=O)(=O)N2CCc3ccccc3C2)c(=O)[nH]1 | 663 |
| CCOC(=O)c1noc2ncnc(N3CCN(c4cccc(Cl)c4)CC3)c12 | 1150 |
| Cn1ncc2c3ccccc3n(CCCC(=O)NCCc3cccs3)c2c1=O | 834 |
| O=C(Nc1cccc([N+](=O)[O-])c1)N1CCN(c2ccccc2)CC1 | 829 |
| Cn1nc(-c2nc(C3CC3)no2)c2c1CCN(C(=O)c1ccc(F)c(Cl)c1)C2 | 900 |
| Cc1ccc(C(=O)N2CCc3[nH]cnc3C23CCCC3)c(C)c1 | 564 |
| Cc1ccnc(N2CCCC(C(=O)N3CCC(Cc4ccccc4)CC3)C2)n1 (stereo unspecified) | 987 |

More lines, now with the values ahead:

| RP-LC retention time [s] | Structure (SMILES) |
| --- | --- |
| 873 | Cc1ccc(-c2cn3ccn(-c4cccc(F)c4)c(=O)c3n2)cc1C |
| 802 | Cc1cc(C)cc(NC(=O)Cn2c(C)nc3onc(C)c3c2=O)c1 |
| 1020 | Cc1nc2cc(-c3noc(-c4ncoc4-c4ccccc4)n3)ccc2o1 |
| 1030 | Cc1nc2cc(-c3noc(C4CC(=O)N(c5ccccc5)C4)n3)ccc2n(C2CCCC2)c1=O (stereo unspecified) |
| 852 | Cc1ccc(NC(=O)CSc2nc(N3CCCCC3)nc3ccccc23)cc1Cl |
| 926 | CCc1c(C2CCN(C(=O)Nc3ccc(F)c(Cl)c3)CC2)noc1N |
| 1070 | CCOc1ccc(C(=O)N2C[C@H](c3nc(-c4ccccc4)no3)[C@@H](C)C2)cc1 |
| 1120 | CCOc1ccc(S(=O)(=O)N2CCC(c3noc(-c4ccc(F)cc4)n3)CC2)cc1 |
| 786 | CC(=O)Nc1ccc(-c2noc(C3CCN(C(=O)CCc4c[nH]c5ccccc45)CC3)n2)cc1 |
| 885 | O=C(Cn1nc2c(Oc3cccc(F)c3)nccn2c1=O)Nc1cc(F)ccc1F |
| 736 | Cc1cccc(-c2nnc(C)c(NCc3ccc(C)o3)n2)c1 |
| 1040 | Cc1ccc(CNS(=O)(=O)c2cc(-c3nc(C)c(C)s3)cs2)cc1 |
| 977 | CC(C)n1cc(S(=O)(=O)NCc2ccccc2C(F)(F)F)c2cccnc21 |
| 676 | CCN(CC)C(=O)C1CCC(=O)N(c2ccc(OC)cc2)C1c1ccc(OC)c(OC)c1 (stereo unspecified) |
| 664 | COc1ccc(S(=O)(=O)N2CCN(c3cc(-n4ccnc4)nc(C)n3)CC2)cc1Cl |
| 769 | COc1ccc2[nH]c(C(=O)N[C@@H](C)C(=O)NCCc3c[nH]c4ccccc34)cc2c1OC |
| 738 | Cn1cnc2ccc(-c3noc(Cc4ccccc4Cl)n3)cc21 |
| 743 | CCc1nn2c(=O)cc(CSc3nnc(-c4ccc5c(c4)OCO5)o3)nc2s1 |

| RP-LC retention time [s] | Structure (SMILES) |
| --- | --- |
| 901 | Cc1ccc(-c2nc3sc(N4CCCCC4)nn3c2NC(=O)C2CCCO2)cc1 (stereo unspecified) |
| 976 | Cc1ccc(NC(=O)C2CCN(S(C)(=O)=O)c3cc(C)ccc3O2)cc1 (stereo unspecified) |
| 798 | CCn1c(SC)nnc1-c1nn(C)c2c1CN(C(=O)CCc1ccccc1)CC2 |
| 831 | CCOc1ccc2nc(Nc3ncc4c(n3)CC(c3ccccc3)CC4=O)nc(C)c2c1 (stereo unspecified) |
| 776 | Cc1ccc(CN2CCN(C3CCN(C(=O)Nc4ccc(F)cc4)CC3)C(=O)C2=O)cc1 |
| 631 | CC(C)(C)Cn1c(N)nc2ccc(-c3[nH]c(C(C)(C)C)nc3-c3ccc(F)cc3)nc21 |
| 901 | CCc1nc(-c2csc(S(=O)(=O)N3CCCC(C(=O)Nc4ccc(C)cc4)C3)c2)no1 (stereo unspecified) |
| 889 | Cc1nc(Cn2cccc2C(=O)Nc2ccc(C)c(F)c2)no1 |
| 763 | CC(C)N1CCn2cc(S(=O)(=O)NCc3ccc(F)cc3F)cc2C1=O |
| 760 | Fc1ccc(CN(C2=NCCN2)c2c(Cl)cccc2Cl)cc1 |
| 956 | Cc1ccc(-c2noc(-c3nn(-c4cccc(F)c4)ccc3=O)n2)cc1 |
| 614 | CCOc1ccc(CNC(=S)Nc2ccc3nc(N4CCN(C)CC4)cc(C)c3c2)cc1 |
| 776 | COc1cccc(NC(=O)CN2C(=O)c3ccccc3Sc3ncccc32)c1 |
| 833 | COc1ccc(C2CC(=O)N(c3ccc4c(c3)OCCO4)C(=O)C2)cc1 |
| 993 | COc1cccc(-c2nn3c(CSc4ccccc4)nnc3s2)c1 |
| 967 | Cc1cc2nn(CC(=O)Nc3ccc(F)c(F)c3)c(=O)n2c(Nc2ccccc2)n1 |
| 717 | O=C(NC1CCN(c2cc(-c3ccccc3)[nH]n2)C1)c1cccc(F)c1 (stereo unspecified) |
| 925 | Fc1ccc(Cc2nc(-c3cccc(-c4ccn[nH]4)c3)no2)cc1 |
